Reference: patent publication US8455469B2, “Use of norgestimate as a selective inhibitor of TRPC3, TRPC6 and TRPC7 ion channels” (Sanofi, priority 2007, dated 2013)
Entries after “also recorded” stand apart in the source; their conditions may differ.

What was measured:
[1] = test system: TRPC3/6/7 subfamily members versus TRPC4/5 subfamily members; assay: Fluorometric measurements, potency compared between TRPC subfamilies; format: cell-based; details: based on calculated inhibition by 10 μM norgestimate
Description: The 4-fold more potency of norgestimate on TRPC3/6/7 subfamily members than on TRPC4/5 subfamily members was evaluated with fluorometric measurements and based on the calculated inhibition by 10 μM norgestimate.

[2] = test system: native heteromeric TRPC6/7 channels; assay: Whole-cell patch clamp of AVP-stimulated A7r5 cells; format: cell-based, rat; details: 10 μM
Description: The A7r5 cell line (derived from rat thoracic aorta smooth muscle cells) is a model system to investigate endogenous TRPC channels (Jung et al., 2002; Soboloff et al., 2005). The channels were indirectly stimulated by Arg^8-vasopressin (AVP), a vasoconstricting peptide that activates the endogenous vasopressin V1A receptor in these cells (Thibonnier et al., 1991).
Perfusion of A7r5 cells with 100 nM AVP stimulated non-selective cationic currents that bore the biophysical hallmarks of TRPC channels (FIG. 5). […] When 10 μM norgestimate were applied to AVP-stimulated A7r5 cells, 86.5±6.0% (n=8) of the current measured at resting membrane potential were blocked and this effect was reversible (FIG. 5).
Effect of 10 μM norgestimate (NG) on whole-cell currents evoked by 100 nM AVP on A7r5 cells in standard extracellular solution (200 μM [Ca^2+]o). Whole cell currents recorded at −60 mV (left panels) and the corresponding I-V relationships are shown (right panels). The curves were obtained during voltage ramps from −100 to +80 mV. L-type voltage-gated Ca^2+ channels were blocked by 5 μM nimodipine (ND) during the whole experiment.

TRPC4 = target: T1, TRPC4 (Homo sapiens, UniProt Q9UBN4); assay: FLIPR Ca2+ influx measurement, trypsin-stimulated TRPC4 HEK293 cells; format: cell-based; details: 200 nM trypsin
T1 construct: expressed in transfected cells; host or cells: HEK293 (inducible expression)
T1 sequence (Q9UBN4 1-977): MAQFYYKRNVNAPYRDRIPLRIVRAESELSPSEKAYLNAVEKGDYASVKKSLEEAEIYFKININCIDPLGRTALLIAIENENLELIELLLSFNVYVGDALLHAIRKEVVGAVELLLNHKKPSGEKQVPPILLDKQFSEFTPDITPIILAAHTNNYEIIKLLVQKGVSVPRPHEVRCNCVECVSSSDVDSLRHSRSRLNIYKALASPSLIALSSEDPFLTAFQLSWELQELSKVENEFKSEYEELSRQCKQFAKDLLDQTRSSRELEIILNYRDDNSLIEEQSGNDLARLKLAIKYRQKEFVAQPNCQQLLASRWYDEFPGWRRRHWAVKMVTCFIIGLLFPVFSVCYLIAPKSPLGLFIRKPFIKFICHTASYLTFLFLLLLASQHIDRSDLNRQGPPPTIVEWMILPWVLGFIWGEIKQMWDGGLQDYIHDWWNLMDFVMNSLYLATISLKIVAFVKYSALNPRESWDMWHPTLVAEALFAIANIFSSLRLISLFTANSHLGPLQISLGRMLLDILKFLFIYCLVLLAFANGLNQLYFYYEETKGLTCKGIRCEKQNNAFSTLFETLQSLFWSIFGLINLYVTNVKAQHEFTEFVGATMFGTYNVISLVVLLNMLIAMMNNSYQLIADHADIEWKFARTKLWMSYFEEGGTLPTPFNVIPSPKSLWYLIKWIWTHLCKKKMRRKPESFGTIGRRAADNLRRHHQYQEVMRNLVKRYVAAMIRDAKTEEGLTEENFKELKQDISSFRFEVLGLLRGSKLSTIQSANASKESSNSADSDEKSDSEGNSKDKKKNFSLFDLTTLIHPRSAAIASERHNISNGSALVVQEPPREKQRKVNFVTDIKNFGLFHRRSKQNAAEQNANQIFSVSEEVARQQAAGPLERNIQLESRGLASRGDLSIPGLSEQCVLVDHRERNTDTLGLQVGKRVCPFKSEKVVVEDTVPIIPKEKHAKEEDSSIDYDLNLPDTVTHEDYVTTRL
Excerpt: In general, cells are provided which express a TRPC channel. Such cells can be produced using genetic methods known to a person skilled in the art. After having induced the expression of the TRPC channel, cells are usually plated into e.g. microtiter plates and grown. Usually the cells grow at the bottom of multiwell plates and are fixed. Thereafter, the cells are generally washed and loaded with a dye in a suitable loading buffer, preferably with a fluorescent dye such as fluo4am. After having removed the loading buffer, the cells are incubated with the test compound or modulator, in particular with a biochemical or chemical test compound as described above, e.g. in the form of a chemical compound library. Ca^2+ measurements can be carried out using e.g. a Fluorescence Imaging Plate Reader (FLIPR). To stimulate Ca^2+ influx through the TRPC channel a channel activator such as OAG should generally be applied.
When these experiments were performed, no direct physiological stimuli of TRPC4 and TRPC5 were known. Therefore, both channels had to be stimulated indirectly, e.g. by application of trypsin, a protease-activated receptor (PAR) stimulating protease. […] Kinetics and quantity of calcium store release in cells treated with 30 μM norgestimate were not changed compared to untreated cells. […]

C#C[C@]1(OC(C)=O)CC[C@H]2[C@@H]3CCC4=C/C(=N/O)CC[C@@H]4[C@H]3CC[C@@]21CC [norgestimate, D-17β-acetoxy-B-ethyl-17α ethinyl-gon-4-en-3-one oxime]
fold more potent on TRPC3/6/7 subfamily members than on TRPC4/5 subfamily members [1]: at least 4 fold | reversibility of current block in A7r5 cells [2]: reversible | AVP-stimulated current blocked in A7r5 cells ([2]; 100 nM AVP, resting membrane potential (-60 mV), n=8): 86.5±6.0% | inhibitory effect on TRPC4-mediated Ca2+ influx (TRPC4; 30 μM norgestimate): only small inhibitory effects; also recorded: slightly reduced | IC50 (TRPC4; FLIPR, n=2): > 30 µM
